Assay results reported in patent US20140121256A1, “METHOD OF TREATING MUSCULAR WEAKNESS COMPRISING ADMINISTERING A COMPOSITION COMPRISING AN EFFECTIVE AMOUNT OF HISTAMINE AND/OR SEROTONIN” (BEECH TREE LABS, INC., priority 2012, published 2014).

Key:
[1] = system: C57BL/10SCSN-Dmd^mdx/J mice; test: Grip strength tests (triangle and mesh) in mdx mouse model of DMD; type: in vivo; details: 1×, 4×, 8×, twice daily
Source text: Female mouse strain C57BL/10SCSN-Dmd^mdx/J (Jackson laboratories) is a strain of mice that is most similar in affliction to humans with DMD. The mdx mutation of Dmd is recessive and heterozygous females are visually indistinguishable from wild-type mice. […] One of the drawbacks of this mouse model is that by six weeks (10 weeks of age) the afflicted mice mimic the wild type control mice. This is attributed to the compensatory function of the dystrophin-related protein utrophin, which is highly up regulated in regenerating muscle fibers in adult Dmd^mdx mutants. The histamine and serotonin formulation was evaluated using this mouse model to determine its effects on DMD.
The first experiment conducted focused on whether any difference could be detected in mice receiving the histamine and serotonin formulation vs. control.
Injections started the following day.
Measurements to determine effectiveness of histamine and serotonin formulation were conducted using two different methods: 1. a wire hang test was utilized to see how long the mice were able to hang onto a wire before releasing and falling, and 2. a grip strength meter device (Columbus Instruments) was used to measure the peak force exerted by the animal when pulled. […]
For both of the grip strength tests, ten measurements were taken per mouse and the average was recorded.

[2] = system: normal human BioArtificial Muscles (mBAMs engineered from human skeletal myoblasts); test: Tetanic (active) force of mBAMs, MyoForce Analysis System; type: cell-based; details: 80 nM; after 3-4 days of drug treatment; p<0.001
Protocol: According to this example, a composition comprising histamine and serotonin was administered at 6 different concentrations on normal human BioArtificial Muscles (mBAMs engineered from human skeletal rmyoblasts) for effects on strength (active force generation) and injury using Myomics' MyoForce Analysis System (MFAS™).
A solution comprising 200 times the dosage of the histamine and serotonin present in a typical therapeutic drop (i.e., 1 mg histamine and 16 mg serotonin in PBS) stored at 4° C. was administered to a cell culture comprising human skeletal muscle cells previously isolated from a normal (disease-free) person were used for this study. Cells were expanded in culture in a Growth Medium optimized for human skeletal muscle (SKGM/15) for 5 days before engineering into bioartificial muscles (mBAMs). On the day of engineering, mBAMs, cells were trypsinized and counted following standard laboratory protocols.
A sterile 96 well MyoForce plate was used for tissue engineering the mBAMs. Myomics' Robotic Tissue Engineering Platform was used to engineer 72 mBAMs in approximately 10 minutes by mixing cells with an extracellular matrix solution and casting in the plate wells. The plate containing the mBAMs was maintained for 2 days at 37° C. in SKGM/15, then incubated in an optimized differentiation medium for the remainder of the experiment. […]

NCCc1c[nH]c2ccc(O)cc12 [serotonin, 5-hydroxytryptamine]
grip strength tests vs PBS controls ([1]; fourth experiment, serotonin alone 0.4×): no statistically significant differences

NCCc1c[nH]cn1 [histamine]
triangle and mesh grip strength vs PBS control ([1]; third experiment, histamine alone 0.4×): improves performance in both the Triangle and Mesh tests

CC(=O)OCC(=O)[C@@]12N=C(C)O[C@@H]1C[C@H]1[C@@H]3CCC4=CC(=O)C=C[C@]4(C)[C@H]3[C@@H](O)C[C@@]12C [deflazacort]
increase in tetanic force compared to untreated controls [2]: 32%
